Laboratory results: PubChem BioAssay (NCI)
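1) Cells in 96-well plates. 2) Compound, 48 h, 5 concentrations. 3) Linear interpolation between surrounding doses. 4) Unreached endpoint = highest concentration. TGI: concentration producing complete growth inhibition.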

Legend:
Assay in all cases: DTP human tumour cell line panel, 48 h
UACC-62 melanoma = system: UACC-62 melanoma
TK-10 renal = system: TK-10 renal
NCI-H460 lung = system: NCI-H460 lung
HOP-92 NSCLC = system: HOP-92 NSCLC
MOLT-4 leukemia = system: MOLT-4 leukemia
UO-31 renal = system: UO-31 renal
SNB-75 CNS = system: SNB-75 CNS
RXF 393 renal = system: RXF 393 renal
A549 NSCLC = system: A549 NSCLC
KM12 colon = system: KM12 colon
RPMI-8226 leukemia = system: RPMI-8226 leukemia
SF-539 CNS = system: SF-539 CNS
OVCAR-8 ovarian = system: OVCAR-8 ovarian
786-0 renal = system: 786-0 renal
HOP-62 NSCLC = system: HOP-62 NSCLC
CCRF-CEM leukemia = system: CCRF-CEM leukemia
EKVX NSCLC = system: EKVX NSCLC
SK-MEL-2 melanoma = system: SK-MEL-2 melanoma

Compound | TGI (UACC-62 melanoma) [µM] | TGI (TK-10 renal) [µM] | TGI (NCI-H460 lung) [µM] | TGI (HOP-92 NSCLC) [µM] | TGI (MOLT-4 leukemia) [µM] | TGI (UO-31 renal) [µM] | TGI (SNB-75 CNS) [µM] | TGI (RXF 393 renal) [µM] | TGI (A549 NSCLC) [µM] | TGI (KM12 colon) [µM] | TGI (RPMI-8226 leukemia) [µM] | TGI (SF-539 CNS) [µM] | TGI (OVCAR-8 ovarian) [µM] | TGI (786-0 renal) [µM] | TGI (HOP-62 NSCLC) [µM] | TGI (CCRF-CEM leukemia) [µM] | TGI (EKVX NSCLC) [µM] | TGI (SK-MEL-2 melanoma) [µM]
CCC(=O)N(O)C(C)(C)C | > 100 | > 100 | > 100 | > 100 | > 100 | > 100 | > 100 | > 100 | > 100 | > 100 | > 100 | > 100 | > 100 | > 100 | > 100 | > 100 | – | –
CC(C)(C)OC(=O)N/N=C(/N)Cc1ccccc1 | > 100 | > 100 | – | > 100 | > 100 | > 100 | > 100 | > 100 | > 100 | > 100 | > 100 | > 100 | > 100 | > 100 | > 100 | > 100 | > 100 | > 100
O=C1NC(=O)C(COCc2ccccc2)C2=C1SCCC2 (centres undefined) | – | – | > 100 | > 100 | > 100 | > 100 | > 100 | > 100 | > 100 | > 100 | > 100 | > 100 | > 100 | > 100 | > 100 | > 100 | > 100 | > 100
COC(=O)C1(Cc2ccc3c(c2)CCC3)Cc2ccc3c(c2C1)CCC3 (centres undefined) | > 100 | > 100 | 73.2 | 98.1 | > 100 | 74 | > 100 | 83.3 | > 100 | 54 | 46.9 | > 100 | > 100 | 97.6 | > 100 | > 100 | > 100 | –
Cc1cc2nc(-c3c(F)cccc3F)n(Cc3c(F)cccc3F)c2cc1C | – | 56.6 | 49.7 | 30 | 33.8 | 23.3 | 26.1 | 61 | 28.1 | 28.6 | 24 | 34.3 | 29.5 | 31.8 | 28.7 | 60.9 | 22.7 | 29.6
c1ccc2c(c1)nc1n2C2CCC(C2)N1 (centres undefined) | > 10 | > 10 | > 10 | > 10 | > 10 | > 10 | > 10 | > 10 | > 10 | – | > 10 | > 10 | > 10 | > 10 | > 10 | > 10 | > 10 | > 10
O=c1[nH]c(-c2ccccc2)nc2c1sc1nc3ccccc3n12 | > 100 | > 100 | > 100 | > 100 | > 100 | > 100 | > 100 | > 100 | > 100 | > 100 | > 100 | > 100 | > 100 | > 100 | – | > 100 | > 100 | > 100
NC(CCC(=O)O)(CCC(=O)O)CCC(=O)O | > 100 | > 100 | > 100 | > 100 | > 100 | > 100 | > 100 | > 100 | > 100 | > 100 | > 100 | > 100 | > 100 | > 100 | – | > 100 | > 100 | > 100
COc1ccc(C(=O)/C=C/c2cccnc2)cc1OC | 28.4 | 29.1 | – | 26.7 | 14.1 | 26.3 | 24.4 | 18.6 | 27.7 | – | – | 6.4 | 18.6 | 14.1 | 28.2 | > 100 | 28.7 | 27.3
COc1ccc(C2(O)c3ccccc3C(=O)N(C)C2(O)c2ccc(OC)cc2)cc1 (centres undefined) | > 100 | > 100 | > 100 | > 100 | > 100 | > 100 | – | > 100 | > 100 | 89.4 | > 100 | > 100 | > 100 | > 100 | > 100 | > 100 | > 100 | > 100
COC(C)(C)CCc1[nH]c2ccccc2c1CC(=O)NCCc1cncn1C | > 100 | > 100 | > 100 | > 100 | > 100 | > 100 | > 100 | > 100 | > 100 | > 100 | > 100 | > 100 | > 100 | > 100 | – | > 100 | > 100 | > 100
C=C1C(=O)O[C@H]2[C@H]3O[C@@H](C[C@@H]12)[C@@]1(C)CC[C@H](O1)C(C)=CCC[C@H]3C | 4.05 | 2.93 | 7.26 | 3.45 | – | 2.77 | 5.65 | 3.75 | 6.96 | 3.76 | 2.46 | 3.07 | 3.1 | 2.67 | 19.1 | 1.98 | 3.32 | 4.11
CN(CCCN(C)CCc1ccc(Cl)c(Cl)c1)CCCN1CCCC1 | 3.49 | 5.52 | 5.98 | 11.5 | 12.4 | 2.76 | 8.91 | 4.58 | 11.2 | 7.99 | 2.19 | – | 10.9 | 2.76 | 10.5 | 2.12 | 13.7 | 3.48
O=c1oc(-c2ccccc2)c(-c2ccccc2)n1-c1ccc(Br)cc1 | > 100 | > 100 | > 100 | > 100 | > 100 | > 100 | 32.2 | > 100 | > 100 | > 100 | – | 53.8 | > 100 | > 100 | > 100 | > 100 | > 100 | > 100
